Conditions: Liquid; for mass density: Vibrating tube method; for viscosity: Concentric cylinders viscometry

CCCC[n+]1ccc(C)cc1.F[B-](F)(F)F [1-butyl-4-methylpyridinium tetrafluoroborate]
Conditions	mass density [kg/m3]	viscosity [mPa·s]
278.16 K, 101.33 kPa	1202.41	–
283.13 K, 2389 kPa	1200.77	–
283.14 K, 99418 kPa	1237.54	–
283.15 K, 101.33 kPa	–	765.72
283.15 K, 60042 kPa	1223.77	–
283.15 K, 79648 kPa	1230.82	–
283.15 K, 89923 kPa	1234.36	–
283.16 K, 49953 kPa	1219.99	–
283.16 K, 69924 kPa	1227.37	–
283.17 K, 101.33 kPa	1198.9	–
283.17 K, 20156 kPa	1208.22	–
283.17 K, 29957 kPa	1212.19	–
283.17 K, 39808 kPa	1216.08	–
283.2 K, 5533 kPa	1202.11	–
283.2 K, 10148 kPa	1204.06	–
293.13 K, 2593 kPa	1194.15	–
293.14 K, 99354 kPa	1231.77	–
293.15 K, 101.33 kPa	–	338.59
293.15 K, 69958 kPa	1221.46	–
293.15 K, 79965 kPa	1225.08	–
293.15 K, 90001 kPa	1228.6	–
293.16 K, 101.33 kPa	1191.79	–
293.16 K, 5220 kPa	1195.31	–
293.16 K, 49933 kPa	1213.87	–
293.16 K, 59929 kPa	1217.71	–
293.17 K, 10236 kPa	1197.5	–
293.17 K, 19941 kPa	1201.67	–
293.17 K, 29914 kPa	1205.84	–
293.17 K, 39693 kPa	1209.82	–
298.13 K, 101.33 kPa	1188.41	–
298.15 K, 101.33 kPa	–	236.97
298.15 K, 1003 kPa	1190.06	–
298.15 K, 5005 kPa	1191.86	–
298.15 K, 10002 kPa	1194.09	–
298.15 K, 19998 kPa	1198.45	–
298.15 K, 29945 kPa	1202.67	–
298.15 K, 39923 kPa	1206.79	–
298.15 K, 49991 kPa	1210.83	–
298.15 K, 60002 kPa	1214.72	–
298.15 K, 70001 kPa	1218.49	–
298.15 K, 79994 kPa	1222.14	–
298.15 K, 90002 kPa	1225.68	–
298.15 K, 99998 kPa	1229.1	–
303.15 K, 101.33 kPa	–	171.04
313.13 K, 101.33 kPa	1178.11	–
313.15 K, 101.33 kPa	–	96.18
313.15 K, 59740 kPa	1205.47	–
313.16 K, 2707 kPa	1180.63	–
313.16 K, 20303 kPa	1188.77	–
313.16 K, 29913 kPa	1193.03	–
313.16 K, 49943 kPa	1201.51	–
313.16 K, 69933 kPa	1209.44	–
313.16 K, 89952 kPa	1216.83	–
313.16 K, 99473 kPa	1220.15	–
313.17 K, 5339 kPa	1181.88	–
313.17 K, 10173 kPa	1184.14	–
313.17 K, 39937 kPa	1197.34	–
313.17 K, 79710 kPa	1213.11	–
323.15 K, 101.33 kPa	–	58.53
333.13 K, 1547 kPa	1166.3	–
333.13 K, 39448 kPa	1184.41	–
333.14 K, 101.33 kPa	1164.59	–
333.14 K, 49914 kPa	1188.99	–
333.14 K, 60043 kPa	1193.26	–
333.15 K, 101.33 kPa	–	38.29
333.15 K, 5146 kPa	1168.12	–
333.15 K, 29917 kPa	1180.08	–
333.15 K, 69942 kPa	1197.26	–
333.16 K, 19866 kPa	1175.35	–
333.16 K, 79463 kPa	1200.96	–
333.16 K, 89996 kPa	1204.89	–
333.17 K, 9837 kPa	1170.46	–
333.17 K, 99595 kPa	1208.3	–
343.14 K, 101.33 kPa	1157.92	–
343.15 K, 101.33 kPa	–	26.48
353.13 K, 59133 kPa	1180.36	–
353.14 K, 2498 kPa	1152.85	–
353.14 K, 5035 kPa	1154.22	–
353.14 K, 9690 kPa	1156.69	–
353.14 K, 20367 kPa	1162.21	–
353.14 K, 29942 kPa	1166.97	–
353.14 K, 39870 kPa	1171.71	–
353.14 K, 49991 kPa	1176.35	–
353.14 K, 70001 kPa	1184.93	–
353.15 K, 101.33 kPa	–	19.17
353.15 K, 89993 kPa	1192.71	–
353.16 K, 79945 kPa	1188.9	–
353.16 K, 98529 kPa	1195.8	–
363.15 K, 101.33 kPa	–	14.41
373.13 K, 59930 kPa	1168.03	–
373.14 K, 2866 kPa	1138.93	–
373.14 K, 40385 kPa	1158.91	–
373.14 K, 49993 kPa	1163.5	–
373.14 K, 69984 kPa	1172.37	–
373.15 K, 101.33 kPa	–	11.19
373.15 K, 5031 kPa	1140.17	–
373.15 K, 29936 kPa	1153.67	–
373.15 K, 79614 kPa	1176.31	–
373.15 K, 90002 kPa	1180.33	–
373.15 K, 99124 kPa	1183.64	–
373.16 K, 9772 kPa	1142.85	–
373.17 K, 20168 kPa	1148.55	–
393.14 K, 99382 kPa	1171.13	–
393.15 K, 10459 kPa	1129.2	–
393.15 K, 20029 kPa	1134.74	–
393.15 K, 90001 kPa	1167.72	–
393.16 K, 2068 kPa	1124.13	–
393.16 K, 5306 kPa	1126.11	–
393.16 K, 29942 kPa	1140.22	–
393.17 K, 39803 kPa	1145.4	–
393.17 K, 49942 kPa	1150.46	–
393.17 K, 70000 kPa	1159.64	–
393.17 K, 80173 kPa	1163.89	–
393.18 K, 59764 kPa	1155.09	–
